Measurements reported in patent US5776928A (priority 1995, dated 1998).

How the values were obtained:
[1] = system: muscarinic cholinergic receptor; assay: pharmacological studies, muscarinic cholinergic receptor activity
[2] = detection of radiolabelled compound in saliva; format: in vivo
Method: For example, in the treatment of adult humans, dosages of from about 0.25 to 50 mg, preferably from 1 to 30 mg, and most preferably 1 to 20 mg per day may be used. A once a day dosage is normally sufficient, although divided doses may be administered. For treatment of a dyskinesia, a dose range of from 1 to 30 mg, preferably 1 to 20 mg per day is suitable.

clinical subjects = assay: clinical observation of pupils in clinical subjects; format: in vivo
rats = assay: in vivo observation in rats exposed to an overdose
5-HT1C receptor = assay: activity at the 5-HT1C receptor; conditions: anhydrous Form I

| SMILES | muscarinic cholinergic receptor activity [1] | detection in the saliva [2] | pupilary effect (clinical subjects) | salivation (rats) | activity at the 5-HT1C receptor (5-HT1C receptor) |
| --- | --- | --- | --- | --- | --- |
| Cc1cc2c(s1)Nc1ccccc1N=C2N1CCN(C)CC1 | has muscarinic cholinergic receptor activity | can be detected in the saliva | pupilary constriction rather than the expected pupilary dilation | significant salivation |  |
| Cc1cc2c(s1)Nc1ccccc1N=C2N1CCN(C)CC1 [anhydrous Form I compound] |  |  |  |  | active |
